Square brackets hold non-standard residues; d marks the D form. Peptide text beside a SMILES is read from it. NMeY = CN[C@@H](Cc1ccc(O)cc1)C(=O)O

The target in the assay is Bifunctional purine biosynthesis protein ATIC (Homo sapiens, UniProt P31939). Put plainly: Enzyme Inhibition Assay. The settings on record: 25 °C. An excerpt: Enzyme inhibition using aminoimidazole carboxamide ribonucleotide transformylase/inosine monophosphate cyclohydrolase (ATIC).
Bifunctional purine biosynthesis protein ATIC, sequence (P31939 whole entry): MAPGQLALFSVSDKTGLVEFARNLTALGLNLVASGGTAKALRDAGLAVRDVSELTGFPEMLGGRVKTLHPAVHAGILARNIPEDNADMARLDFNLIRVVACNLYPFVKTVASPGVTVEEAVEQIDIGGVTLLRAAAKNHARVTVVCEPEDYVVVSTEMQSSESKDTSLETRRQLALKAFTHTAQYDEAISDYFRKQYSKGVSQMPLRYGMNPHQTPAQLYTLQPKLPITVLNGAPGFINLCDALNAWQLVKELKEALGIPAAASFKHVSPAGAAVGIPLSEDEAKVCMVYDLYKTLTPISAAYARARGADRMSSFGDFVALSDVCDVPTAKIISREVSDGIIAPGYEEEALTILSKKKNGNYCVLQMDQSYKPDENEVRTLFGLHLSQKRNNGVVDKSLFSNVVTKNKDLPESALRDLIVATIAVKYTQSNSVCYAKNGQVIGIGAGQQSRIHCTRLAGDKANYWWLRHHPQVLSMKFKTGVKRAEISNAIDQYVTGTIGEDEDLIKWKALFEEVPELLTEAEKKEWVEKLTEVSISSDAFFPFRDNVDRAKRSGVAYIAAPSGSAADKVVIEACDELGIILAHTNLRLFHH
The Ki is a measure of affinity in units of concentration, obtained from inhibition or displacement. In turn, `CCNC(=O)[C@H](Cc1ccc(O)cc1)NC(=O)[C@H](CCCN=C(N)N)NC(C)=O` [RY Analogue, 8] (Ac-Arg-Tyr-NHEt) registered a Ki of 84 µM.

`CCNC(=O)[C@H](Cc1ccccc1)NC(=O)[C@H](CCCN=C(N)N)NC(C)=O` [RY Analogue, 9] came in with a Ki of 339 µM.

`CCNC(=O)[C@H](Cc1ccc(F)cc1)NC(=O)[C@H](CCCN=C(N)N)NC(C)=O` [RY Analogue, 10]: the Ki was determined as 135 µM.

`CCNC(=O)[C@H](Cc1ccc(OC)cc1)NC(=O)[C@H](CCCN=C(N)N)NC(C)=O` [RY Analogue, 11] (Ac-Arg-Tyr(Me)-NHEt) gave a Ki of 87 µM.

In turn, `CCNC(=O)[C@H](Cc1ccc(C#N)cc1)NC(=O)[C@H](CCCN=C(N)N)NC(C)=O` [RY Analogue, 12] returned an inhibitory constant (Ki) of 56 µM.

In the case of `CCNC(=O)[C@H](Cc1ccc(B(O)O)cc1)NC(=O)[C@H](CCCN=C(N)N)NC(C)=O` [RY Analogue, 13], the Ki worked out at 59 µM.

On to `CCNC(=O)[C@H](Cc1ccc([N+](=O)[O-])cc1)NC(=O)[C@H](CCCN=C(N)N)NC(C)=O` [RY Analogue, 14], for which the Ki was found to be 0.685 µM.

Take `CCNC(=O)[C@H](Cc1ccc(O)cc1)N(C)C(=O)[C@H](CCCN=C(N)N)NC(C)=O` [RY Analogue, 16] (Ac-Arg-[NMeY]-NHEt): the Ki worked out at 145 µM.

As to `CCNC(=O)[C@H](Cc1ccc([N+](=O)[O-])cc1)N(C)C(=O)[C@H](CCCN=C(N)N)NC(C)=O` [RY Analogue, 17], the affinity, expressed as Ki, was 2.5 µM.

Values taken from BindingDB's records for doi:10.1002/cbic.201200279 (University of Southampton, 2012).
